System: Influenza A virus (A/WSN/1933(H1N1))
Experiment: microbe, parasite or virus in culture
Type: cell-based
Details: MDCK, 24 h with compound, then 2 h drug-free medium

## CCCOc1c(CNC(=O)c2cc(C3CC3)nn2C)cccc1OC [Compound 33, 3-cyclopropyl-N-(3-methoxy-2-propoxybenzyl)-1-methyl-1H-pyrazole-5-carboxamide]
  EC90: 1500 nM

## COc1c(CNC(=O)c2cc(C3CC3)nn2C)cccc1C(F)(F)F [Compound 24, 3-cyclopropyl-N-(2-methoxy-3-(trifluoromethyl)benzyl)-1-methyl-1H-pyrazole-5-carboxamide]
  EC90: 200 nM

Reference: patent US10532980B2, “N-methyl pyrazoles” (Prosetta Antiviral, Inc., priority 2015, dated 2020)
